Target: human PD-L1 / Human PD-1 (Homo sapiens (Human), UniProt Q9NZQ7)
Assay: Enzyme-Linked Immunosorbent Assay (ELISA), PD-1/PD-L1 binding
Conditions: plates coated with human PD-L1, biotinylated human PD-1 added
Procedure: 96 Well plates were coated with 1 μg/mL of human PD-L1 (obtained from R&D) in PBS overnight at 4′° C. The wells were then blocked with 2% BSA in PBS (W/V) with 0.05% TWEEN-20 for 1 hour at 37′° C. The plates were washed 3 times with PBS/0.05% TWEEN-20 and the compounds were serial diluted (1:5) in dilution medium and added to the ELISA plates. Human PD-1 and biotin 0.3 μg/mL (ACRO Biosystems) were added and incubated for 1 hour at 37° C. then washed 3 times with PBS/0.05% TWEEN-20. A second block was performed with 2% BSA in PBS (WNV)/0.05% TWEEN-20 for 10 min at 37° C. and the plates were washed 3 times with PBS/0.05% TWEEN-20. Streptavidin-HIRP was added for 1 hour at 37° C. then the plates were washed 3 times with PBS/0.05% TWEEN-20. TMB substrate was added and reacted for 20 min at 37° C. A stop solution (2 N aqueous H2SO4) was added. The absorbance was read at 450 nm using a micro-plate spectrophotometer.

Chain of human PD-L1 / Human PD-1 (Q9NZQ7 19-239): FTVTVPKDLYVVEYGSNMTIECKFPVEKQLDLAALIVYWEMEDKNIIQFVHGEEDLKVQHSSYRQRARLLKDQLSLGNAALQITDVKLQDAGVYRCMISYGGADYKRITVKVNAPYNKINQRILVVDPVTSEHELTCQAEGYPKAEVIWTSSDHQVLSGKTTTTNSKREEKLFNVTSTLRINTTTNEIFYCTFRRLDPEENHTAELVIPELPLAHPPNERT

SMILES	IC50 [nM]
COc1cc(-c2cccc(-c3cccc(-c4ccc5c(c4)CCNC5)c3C)c2C)cc(F)c1CNCCO [Compd 1.040, 2-(((3-fluoro-5-methoxy-2′,2″-dimethyl-3″-(1,2,3,4-tetrahydroisoquinolin-6-yl)-[1,1′:3′,1″-terphenyl]-4-yl)methyl)amino)ethan-1-ol]	< 1000
Cc1c(OCCCN2[C@H](C)CC[C@H]2C)cccc1-c1cccc(-c2cc(F)c(CNCCCC(=O)O)c(F)c2)c1C [Compd 1.061]	< 1000
COc1cc(-c2cccc(-c3cccc(-c4cc(F)c(CNCCCCC(=O)O)c(OC)c4)c3C)c2C)cc(F)c1CNCCCCC(=O)O [Compd 1.054]	< 1000
Cc1c(OCCCN2[C@H](C)CC[C@H]2C)cccc1-c1cccc(-c2ccc([C@@H](C)N)cc2)c1C [Compd 1.099]	< 1000
Cc1c(OCCCN2CC3(CC(O)C3)C2)cccc1-c1cccc(-c2ccc3c(c2)CCNC3)c1C [Compd 1.109]	< 1000
COc1cc(-c2cccc(-c3cccc(-c4cc(F)c(CNCCCCO)c(OC)c4)c3C)c2C)cc(F)c1CNCCCCO [Compd 1.049]	< 1000
Cc1c(OCCCN2CCC(F)CC2)cccc1-c1cccc(-c2ccc(CN)cc2)c1C [Compd 1.077]	< 1000
COc1cc(-c2cccc(-c3cccc(-c4cc(F)c(CN(C)C[C@@H]5CCC(=O)N5)c(OC)c4)c3C)c2C)cc(F)c1CN(C)C[C@@H]1CCC(=O)N1 [Compd 1.047]	< 1000
Cc1c(OCCCN2CCC(C)(F)CC2)cccc1-c1cccc(-c2ccc3c(c2)CCNC3)c1C [Compd 1.104]	< 1000
COc1cc(-c2cccc(-c3cccc(OC4CCCNC4)c3C)c2C)cc(F)c1CN (centres unmarked) [Compd 1.014]	1000 to 10000
Cc1cc(-c2cccc(-c3cccc(OCCCN4CCC(F)CC4)c3C)c2C)ccc1CN(C)C [Compd 1.083]	< 1000
COc1cc(-c2cccc(-c3cccc(-c4cc(F)c(CNCC(=O)O)c(OC)c4)c3C)c2C)cc(F)c1CNCC(=O)O [Compd 1.062]	< 1000
COc1cc(-c2cccc(-c3cccc(-c4ccc(CN)c(F)c4)c3C)c2C)cc(F)c1CN [Compd 1.037]	< 1000
Cc1c(OCCCN2[C@H](C)CC[C@H]2C)cccc1-c1cccc(-c2ccc3c(c2)CCNC3)c1C [Compd 1.114]	< 1000
COc1cc(-c2cccc(-c3cccc(-c4cc(F)c(CN5CCC(O)CC5)c(OC)c4)c3C)c2C)cc(F)c1CN1CCC(O)CC1 [Compd 1.043, 1,1′-((3,3′″-difluoro-5,5′″-dimethoxy-2′,2″-dimethyl-[1,1′:3′,1″:3″,1′″-quaterphenyl]-4,4′″-diyl)bis(methylene))bis(piperidin-4-ol)]	< 1000
COc1cc(-c2cccc(-c3cccc(OCCCN4[C@H](C)CC[C@H]4C)c3C)c2C)ccc1CNCCCC(=O)O [Compd 1.066]	< 1000
Cc1c(-c2ccc(CN)cc2)cccc1-c1ccc2c(c1)OCCO2 [Compd 1.127]	1000 to 10000
Cc1c(OCCCN2[C@H](C)CC[C@H]2C)cccc1-c1cccc(-c2ccc(CN(C)C)c(OC(C)C)c2)c1C [Compd 1.074]	< 1000
COc1cc(-c2cccc(-c3cccc(-c4cc(F)c(CCN)c(OC)c4)c3C)c2C)cc(F)c1CN [Compd 1.039]	< 1000
Cc1c(OCCCN2[C@H](C)CC[C@H]2C)cccc1-c1cccc(-c2ccc3c(c2)CCN(CC(=O)O)C3)c1C [Compd 1.108]	< 1000
Cc1c(OCCCN2CCC(F)CC2)cccc1-c1cccc(-c2ccc(CN)cc2Cl)c1C [Compd 1.096]	1000 to 10000
Cc1c(OCCCN2CCC(F)CC2)cccc1-c1cccc(-c2ccc(CN3CCCC[C@H]3C(=O)O)cc2)c1C [Compd 1.071]	1000 to 10000
Cc1c(OCCCN2CCCC2(C)C)cccc1-c1cccc(-c2ccc3c(c2)CCNC3)c1C [Compd 1.105]	< 1000
Cc1c(OCCCN2CCC(F)CC2)cccc1-c1cccc(-c2ccc(CN)c(F)c2)c1C [Compd 1.086]	< 1000

The next lines start with the values.

IC50 [nM]	SMILES
1000 to 10000	Cc1c(OCCCN2CCC(F)CC2)cccc1-c1cccc(-c2ccc(CN(C)C)c(C(F)(F)F)c2)c1C [Compd 1.084]
< 1000	COc1cc(-c2cccc(-c3cccc(OCCCN4[C@H](C)CC[C@H]4C)c3C)c2C)cc2c1CNCC2 [Compd 1.060]
1000 to 10000	COc1cc(-c2cccc(-c3ccc4c(c3)OC(C3=NCCN3)CO4)c2C)cc(F)c1CN (centres unmarked) [Compd 1.009]
< 1000	COc1cc(-c2cccc(-c3cccc(-c4cc(F)c(CNCCC(=O)O)c(OC)c4)c3C)c2C)cc(F)c1CNCCC(=O)O [Compd 1.055]
1000 to 10000	COc1cc(CNCCCC(=O)O)cc(-c2cccc(-c3cccc(OCCCN4[C@H](C)CC[C@H]4C)c3C)c2C)c1 [Compd 1.065]
< 1000	Cc1c(-c2ccc3c(c2)CCNC3)cccc1-c1ccc2c(c1)OCCO2 [Compd 1.126]
< 1000	Cc1c(OCCCN2CC(O)C2)cccc1-c1cccc(-c2ccc3c(c2)CCNC3)c1C [Compd 1.112]
< 1000	COc1cc(-c2cccc(-c3cccc(OCCCN4[C@H](C)CC[C@H]4C)c3C)c2C)cc(F)c1CNCCCC(=O)O [Compd 1.067]
< 1000	Cc1c(OCCCN2[C@H](C)CC[C@H]2C)cccc1-c1cccc(-c2ccc(CN)cc2)c1C [Compd 1.121]
< 1000	Cc1c(OCCCN2[C@H](C)CC[C@H]2C)cccc1-c1cccc(-c2ccc3c(c2)CC(CO)NC3)c1C (some centres unmarked) [Compd 1.069]
1000 to 10000	COc1cc(-c2cccc(-c3cccc(OCCCN4CCC(F)CC4)c3C)c2C)cc(OC)c1CN(C)C [Compd 1.079]
< 1000	Cc1c(OCCCN2CCC2(C)C)cccc1-c1cccc(-c2ccc3c(c2)CCNC3)c1C#N [Compd 1.102, 3′-(3-(2,2-dimethylazetidin-1-yl)propoxy)-2′-methyl-3-(1,2,3,4-tetrahydroisoquinolin-6-yl)-[1,1′-biphenyl]-2-carbonitrile]
1000 to 10000	Cc1c(OCCCN2CCC2(C)C)cccc1-c1cccc(-c2ccc3c(c2)CCNC3)c1 [Compd 1.103, 6-(3′-(3-(2,2-dimethylazetidin-1-yl)propoxy)-2′-methyl-[1,1′-biphenyl]-3-yl)-1,2,3,4-tetrahydroisoquinoline]
< 1000	COc1cc(-c2cccc(-c3cccc(-c4cc(F)c(CNCCCO)c(OC)c4)c3C)c2C)cc(F)c1CNCCCO [Compd 1.056]
< 1000	COc1cc(-c2cccc(-c3cccc(-c4cc(F)c(CN(C)CCCC(=O)O)c(OC)c4)c3C)c2C)cc(F)c1CN(C)CCCC(=O)O [Compd 1.058]
1000 to 10000	COc1cc(-c2cccc(-c3cccc(-c4cc(F)c(CN)c(OC)c4)c3C)c2C)ccc1C(=O)O [Compd 1.005]

IC50 [nM]	SMILES
< 1000	COc1cc(-c2cccc(-c3cccc(-c4cc(F)c(CNCCCC(=O)O)c(OC)c4)c3C)c2C)cc(F)c1CNCCCC(=O)O [Compd 1.063, 4,4′-(((3,3′″-difluoro-5,5′″-dimethoxy-2′,2″-dimethyl-[1,1′:3′,1″:3″,1′″-quaterphenyl]-4,4′″-diyl)bis(methylene))bis(azanediyl))dibutyric acid]
1000 to 10000	COc1cccc(-c2cccc(-c3ccc4c(c3)CCNC4)c2C)c1 [Compd 1.116, 6-(3′-methoxy-2-methyl-[1,1′-biphenyl]-3-yl)-1,2,3,4-tetrahydroisoquinoline]
1000 to 10000	Cc1c(OCCCN2CCC(F)CC2)cccc1-c1cccc(-c2ccc3c(c2C)CCNC3)c1C [Compd 1.087]
< 1000	Cc1c(OCCCN2CCC2(C)C)cccc1-c1cccc(-c2ccc3c(c2)CNCCC3)c1C [Compd 1.123]
< 1000	Cc1c(OCCCN2CCC(O)CC2)cccc1-c1cccc(-c2ccc3c(c2)CCNC3)c1C [Compd 1.111]
< 1000	COC(=O)C1=Cc2cc(-c3cccc(-c4cc(F)c(CN)c(OC)c4)c3C)ccc2OC1 [Compd 1.016, Methyl 6-(4′-(aminomethyl)-3′-fluoro-5′-methoxy-2-methyl-[1,1′-biphenyl]-3-yl)-2H-chromene-3-carboxylate]
< 1000	Cc1c(OCCCN2[C@H](C)CC[C@H]2C)cccc1-c1cccc(-c2ccc3c(c2)CCN(CCO)C3)c1C [Compd 1.107]
< 1000	Cc1c(OCCCN2CCC(F)CC2)cccc1-c1cccc(-c2ccc(CN)cc2F)c1C [Compd 1.082]
< 1000	COc1cc(-c2cccc(-c3cccc(OCCCN4CCC(F)CC4)c3C)c2C)ccc1CN(C)C [Compd 1.094]
1000 to 10000	Cc1c(OCCCN2[C@H](C)CC[C@H]2C)cccc1-c1cccc(-c2ccc3c(c2)CC(C(=O)O)NC3)c1C (some centres unmarked) [Compd 1.064]
< 1000	Cc1c(OCCCN2[C@H](C)CC[C@H]2C)cccc1-c1cccc(-c2ccc(CNCCCC(=O)O)cc2)c1C [Compd 1.100]
< 1000	CNCc1c(F)cc(-c2cccc(-c3cccc(-c4cc(F)c(CNC)c(OC)c4)c3C)c2C)cc1OC [Compd 1.053]
< 1000	C=Cc1c(-c2ccc3c(c2)CCNC3)cccc1-c1cccc(OCCCN2CCC2(C)C)c1C [Compd 1.076, 6-(3′-(3-(2,2-dimethylazetidin-1-yl)propoxy)-2′-methyl-2-vinyl-[1,1′-biphenyl]-3-yl)-1,2,3,4-tetrahydroisoquinoline]
< 1000	COc1cc(-c2cccc(-c3cccc(OCCCN4[C@H](C)CC[C@H]4C)c3C)c2C)ccc1CN(C)C [Compd 1.073]
< 1000	Cc1c(OCCCN2CCC(F)CC2)cccc1-c1cccc(-c2ccc3c(c2)CCNC3)c1C [Compd 1.110]
< 1000	Cc1c(OCCCN2CCC2(C)C)cccc1-c1cccc(-c2ccc3c(c2)CCNC3)c1F [Compd 1.090, 6-(3′-(3-(2,2-dimethylazetidin-1-yl)propoxy)-2-fluoro-2′-methyl-[1,1′-biphenyl]-3-yl)-1,2,3,4-tetrahydroisoquinoline]
